Values quoted from earlier work in patent publication EP4605403B1, “METHOD AND COMPOSITION FOR OLIGONUCLEOTIDE SYNTHESIS” (Bachem Holding AG, priority 2022, dated 2024).

Conditions: protonated form of the base; in water at 25 °C; from A. Fischer et al., J. Chem. Soc. 1964, 3591-3596

**Q.** Which pKa-value does the source give for `Nc1ccncc1` [4-aminopyridine] here?
**A.** 9.1
